These results are taken from patent publication US8691986B2, “Azetidine and piperidine compounds useful as PDE10 inhibitors” (Amgen Inc., priority 2012, dated 2014).

The target of one assay is human PDE2A1 (Homo sapiens (Human), UniProt O00408). Put plainly: PDE2A inhibition, PDE IMAP TR-FRET assay. The format is biochemical. The following applies: FAM-cAMP substrate. On the procedure:
Purified human PDE2A1 and PDE10A2 enzymes were obtained from BPS Bioscience (San Diego, Calif.). IMAP™ TR-FRET progressive binding system, FAM-cAMP substrate were from Molecular Devices (Sunnyvale, Calif.).
The PDE IMAP assay was conducted in a 384-well black Greiner polypropylene plate (Sigma, St. Louis, Mo.). PDE inhibitors were serial diluted in 100% DMSO and dispensed into assay plate at […] per well using Echo® Liquid Handling System from LABCYTE. Ten μL of PDE enzyme in IMAP reaction buffer (10 mM Tris-HCl, pH 7.2, 10 mM MgCl2, 0.05% NaN3, and 0.01% Tween-20) was added into the assay wells. The PDE enzyme concentration used was based on each lot of enzyme activity, to ensure enzyme reaction falls in a linear range under assay condition. 1.4 nM of PDE2 or […] PDE10 were used in the assay system. Enzyme was pre-incubated with inhibitors for 60 minutes at room temperature before addition of 10 uL of substrate addition, which results in 100 nM of FAM-cAMP in the reaction. Enzyme reaction was allowed to proceed at room temperature for 90 min, and the reaction is stopped by 55 μl addition of binding reagent according to manufacturer's recommendation. The mixture is further incubated at room temperature for additional 4 hours, and signal was read on an Envision multimode reader (PerkinElmer). Fluorescence signals were measured at 520 nm and 485 nm. The signal ratio at 520/485 nm corresponded to the generation of reaction product of AMP, and it was used in all data analysis. Values from DMSO-treated wells were normalized to POC=100, and no-enzyme wells were normalized to POC=0. IC50 values were determined by using the Genedata Screener V9.0.1. The curve fitting algorithm used for dose response data analysis in Genedata Screener is a custom implementation of a robust curve-fitting algorithm called ROUT (Robust regression with outlier detection) and uses a four-parameter logistical (4 PL) Hill model.
(In general: TR-FRET usually uses a lanthanide donor and a delayed reading to cut background.)

The next assay deals with PDE10 (Rattus norvegicus (Rat), UniProt Q9QYJ6). Put plainly: PDE10 ex vivo receptor occupancy (RO) screening in rat striatum. The following applies: oral, 10 mpk, 1 h (footnote A). On the procedure: The ex vivo screening protocol was approved by Amgen's Institutional Animal Care and Use Committee (IACUC) and in accordance with the National Institutes of Health Guide for Care and Use of Laboratory Animals in facilities accredited by the Association for the Assessment and Accreditation of Laboratory Animal Care (AALAC).
PDE10 inhibitors were dissolved in 2% Hydroxypropylmethylcellulose (HPMC), 1% Tween-80, pH 2.2 with methanesulfonic acid. Male Sprague Dawley® rats weighing 180-225 g (4 per group) were dosed orally with either vehicle or PDE10 inhibitors (3 mg/kg or 10 mg/kg) and then returned to their home cage to allow for absorption of the compounds. After one hour (with 10 mg/kg PDE10 inhibitor) or four hours (with 3 mg/kg or 10 mg/kg PDE10 inhibitor) rats were sacrificed by CO2 inhalation. Blood was obtained by heart puncture and plasma was frozen and stored at −80° C. for exposure analysis. Brains were removed and immediately frozen in chilled methylbutane, and stored at −80° C. until cutting. Three coronal brain slices per brain containing the striatum were cut at […] using a cryostat and placed onto microscope slides, air-dried and stored at −20° C. For radioligand binding experiments, slides were thawed at room temperature and then incubated with 1 nM a tritium labeled tracer compound (insert citation) in binding buffer (150 mM Phosphate-buffered saline containing 2 mM MgCl2 and 100 mM DTT, pH 7.4) for 1 minute at 4° C. To assess non-specific binding, slides containing adjacent brain sections were incubated in the same solution with addition of […] of an unlabelled, structurally unrelated PDE10 antagonist. Afterwards slides were washed 3 times in ice-cold binding buffer, dipped into distilled water to remove buffer salts, and dried under a stream of cold air. Emission of beta particles from the sections was counted for 8 hours in a Beta Imager 2000 (Biospace, Paris, France) and digitized and analyzed using M3 Vision software (Biospace, Paris, France). Total binding radioactivity in the striatum was measured as cpm/mm^2 in hand-drawn regions of interest and averaged across the three sections per brain. Non-specific binding was subtracted to obtain specific binding values and percent occupancy was calculated by setting vehicle specific binding as 0% occupancy.

Sequence of PDE10 (Q9QYJ6 whole entry): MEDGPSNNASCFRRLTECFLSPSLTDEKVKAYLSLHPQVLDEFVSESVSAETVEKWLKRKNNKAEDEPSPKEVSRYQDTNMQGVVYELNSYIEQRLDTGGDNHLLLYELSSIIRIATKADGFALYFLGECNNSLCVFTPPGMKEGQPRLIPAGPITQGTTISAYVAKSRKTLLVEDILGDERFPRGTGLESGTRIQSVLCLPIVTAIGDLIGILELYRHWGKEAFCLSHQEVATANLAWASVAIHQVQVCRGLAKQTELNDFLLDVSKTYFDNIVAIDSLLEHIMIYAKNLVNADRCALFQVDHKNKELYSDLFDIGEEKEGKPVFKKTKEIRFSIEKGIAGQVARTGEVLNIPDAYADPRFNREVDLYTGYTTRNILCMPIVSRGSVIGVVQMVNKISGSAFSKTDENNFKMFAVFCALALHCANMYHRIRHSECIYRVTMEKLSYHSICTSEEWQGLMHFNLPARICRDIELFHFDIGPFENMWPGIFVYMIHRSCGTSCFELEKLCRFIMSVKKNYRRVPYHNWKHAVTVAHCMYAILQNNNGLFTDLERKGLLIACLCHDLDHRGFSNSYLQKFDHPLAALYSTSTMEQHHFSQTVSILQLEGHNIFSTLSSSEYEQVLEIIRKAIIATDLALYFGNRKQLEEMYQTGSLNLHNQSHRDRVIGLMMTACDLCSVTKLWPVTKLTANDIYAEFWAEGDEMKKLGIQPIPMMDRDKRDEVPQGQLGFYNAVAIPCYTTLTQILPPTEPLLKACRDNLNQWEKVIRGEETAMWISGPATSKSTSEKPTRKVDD
Sequence of human PDE2A1 (O00408 other isoform, or with tags, fused parts or gaps): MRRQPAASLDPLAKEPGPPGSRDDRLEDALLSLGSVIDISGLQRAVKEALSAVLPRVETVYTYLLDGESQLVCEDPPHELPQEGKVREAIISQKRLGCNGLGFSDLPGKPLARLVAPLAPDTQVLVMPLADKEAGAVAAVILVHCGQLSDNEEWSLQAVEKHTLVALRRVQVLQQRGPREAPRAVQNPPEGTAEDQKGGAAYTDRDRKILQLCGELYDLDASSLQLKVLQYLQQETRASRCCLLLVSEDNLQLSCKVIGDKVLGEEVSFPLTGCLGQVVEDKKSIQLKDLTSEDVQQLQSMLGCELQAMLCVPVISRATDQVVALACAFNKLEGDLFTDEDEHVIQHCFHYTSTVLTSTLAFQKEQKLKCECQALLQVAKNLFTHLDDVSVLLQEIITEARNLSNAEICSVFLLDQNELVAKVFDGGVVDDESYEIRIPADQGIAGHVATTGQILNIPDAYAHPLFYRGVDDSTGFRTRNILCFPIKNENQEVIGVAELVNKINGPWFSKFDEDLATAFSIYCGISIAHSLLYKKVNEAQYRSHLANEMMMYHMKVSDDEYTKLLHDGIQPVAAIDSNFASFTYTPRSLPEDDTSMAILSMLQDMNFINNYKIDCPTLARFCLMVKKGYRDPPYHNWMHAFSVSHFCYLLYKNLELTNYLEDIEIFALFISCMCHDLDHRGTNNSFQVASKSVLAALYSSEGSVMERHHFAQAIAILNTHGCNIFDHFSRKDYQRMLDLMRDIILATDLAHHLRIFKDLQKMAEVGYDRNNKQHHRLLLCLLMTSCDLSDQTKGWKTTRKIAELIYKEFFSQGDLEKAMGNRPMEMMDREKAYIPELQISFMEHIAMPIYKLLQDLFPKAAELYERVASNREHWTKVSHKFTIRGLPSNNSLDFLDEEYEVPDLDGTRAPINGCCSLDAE

In general, IC50 refers to the point on the concentration scale where inhibition reaches its midpoint. Low readings indicate higher potency, high ones lower potency. With `NC(=O)c1ccc(-c2nccnc2C2CN(c3ccc4ccccc4n3)C2)cc1` [Compound 15, 4-(3-(1-(2-quinolinyl)-3-azetidinyl)-2-pyrazinyl)benzamide, reference compound], on human PDE2A1, the midpoint of inhibition, the IC50, lay at 10 µM. Also, at PDE10, the receptor occupancy at 10 mg/kg was 47.7%.

Compound `NC(=O)c1ccc(-c2nccnc2C2CN(c3ccc4ccccc4n3)C2)cc1F` [Compound 16, 2-fluoro-4-(3-(1-(quinolin-2-yl)azetidin-3-yl)pyrazin-2-yl)benzamide, reference compound] displayed a half-inhibitory concentration (IC50) against human PDE2A1 of 3.3 µM. This compound displayed a receptor occupancy at 10 mg/kg on PDE10 of 52.3%.

In turn, `CNC(=O)c1cccc(-c2nccnc2C2CN(c3ccc4ccccc4n3)C2)c1` [Compound 17, N-methyl-3-(3-(1-(quinolin-2-yl)azetidin-3-yl)pyrazin-2-yl)benzamide, reference compound] showed a concentration for half-maximal inhibition (IC50) against human PDE2A1 of 2.16 µM. The same compound showed a receptor occupancy at 10 mg/kg on PDE10 of 72%.
